# Experimental data: patent publication US10004701B2, “Methods and compositions for treating infection” (UNIVERSITY OF ROCHESTER, priority 2012, dated 2018)
# Where a name gives a salt, the structure may show the parent alone. Read-outs that look alike come from different tables or passages of the source.
# What was measured:
# Test in all cases: AK assay 384-well format, Prestwick library screening
# E. faecium = format: cell-based, Enterococcus faecium; conditions: 50 μM final drug concentration; for fold induction at 50 µM: Enterococcus faecium, 3 h
# P. aeruginosa = format: cell-based, Pseudomonas aeruginosa; conditions: 50 μM final drug concentration; for fold induction at 50 µM: Pseudomonas aeruginosa, 3 h
# E. coli = format: cell-based, Escherichia coli; conditions: 50 μM final drug concentration; for fold induction at 50 µM: Escherichia coli, 3 h
# E. cloacae = format: cell-based, Enterobacter cloacae; conditions: 50 μM final drug concentration; for fold induction at 50 µM: Enterobacter cloacae, 3 h
# [1] = tested on: S. aureus strain USA300-0114; format: cell-based, Staphylococcus aureus; conditions: 50 μM final drug concentration; for fold induction at 50 µM: Staphylococcus aureus, USA300, 3 h
# [2] = tested on: A. baumannii strain 98-37-09; format: cell-based, Acinetobacter baumannii; conditions: 50 μM final drug concentration; for fold induction at 50 µM: Acinetobacter baumannii, 983709, 3 h
# K. pneumoniae = format: cell-based, Klebsiella pneumoniae; conditions: 50 μM final drug concentration; for fold induction at 50 µM: Klebsiella pneumoniae, 3 h
# [3] = cutoff for positive-scoring molecules 3-fold increase
# [4] = 384-well format, cutoff for positive-scoring molecules 3-fold increase
# [5] = 384-well format, cutoff for positive-scoring molecules 3-fold increase, read-out: AK-based Prestwick Library Screening Results, E. faecium (increase in extracellular AK activity)
# [6] = 384-well format, cutoff for positive-scoring molecules 3-fold increase, read-out: AK-based Prestwick Library Screening Results, P. aeruginosa (increase in extracellular AK activity)
# [7] = 384-well format, cutoff for positive-scoring molecules 3-fold increase, read-out: AK-based Prestwick Library Screening Results, E. coli (increase in extracellular AK activity)
# [8] = 384-well format, cutoff for positive-scoring molecules 3-fold increase, read-out: AK-based Prestwick Library Screening Results, E. cloacae (increase in extracellular AK activity)
# [9] = 384-well format, cutoff for positive-scoring molecules 3-fold increase, read-out: AK-based Prestwick Library Screening Results, S. aureus (increase in extracellular AK activity)
# [10] = 384-well format, cutoff for positive-scoring molecules 3-fold increase, read-out: AK-based Prestwick Library Screening Results, A. baumannii (increase in extracellular AK activity)
# [11] = 384-well format, cutoff for positive-scoring molecules 3-fold increase, read-out: AK-based Prestwick Library Screening Results, K. pneumoniae (increase in extracellular AK activity)
structure (smiles),measurement,setting,value
C[C@H]1NC(=O)NC1=O [Methylhydantoin-5-(D)],"AK-based Prestwick Library Screening Results, E. faecium (fold increase in extracellular AK activity)",E. faecium; [3],1.0
same,"AK-based Prestwick Library Screening Results, P. aeruginosa (fold increase in extracellular AK activity)",P. aeruginosa; [3],1.2
same,"AK-based Prestwick Library Screening Results, E. coli (fold increase in extracellular AK activity)",E. coli; […],1.2
same,"AK-based Prestwick Library Screening Results, E. cloacae (fold increase in extracellular AK activity)",E. cloacae; [3],1.5
same,"AK-based Prestwick Library Screening Results, S. aureus (fold increase in extracellular AK activity)",[1]; [3],1.2
same,"AK-based Prestwick Library Screening Results, A. baumannii (fold increase in extracellular AK activity)",[2]; [3],1.3
same,"AK-based Prestwick Library Screening Results, K. pneumoniae (fold increase in extracellular AK activity)",K. pneumoniae; [3],1.1
C[C@@H]1NC(=O)NC1=O [Methylhydantoin-5-(L)],"AK-based Prestwick Library Screening Results, E. faecium (fold increase in extracellular AK activity)",E. faecium; [3],1.1
same,"AK-based Prestwick Library Screening Results, P. aeruginosa (fold increase in extracellular AK activity)",P. aeruginosa; [3],1.1
same,"AK-based Prestwick Library Screening Results, E. coli (fold increase in extracellular AK activity)",E. coli; […],1.4
same,"AK-based Prestwick Library Screening Results, E. cloacae (fold increase in extracellular AK activity)",E. cloacae; [3],2.0
same,"AK-based Prestwick Library Screening Results, S. aureus (fold increase in extracellular AK activity)",[1]; [3],1.3
same,"AK-based Prestwick Library Screening Results, A. baumannii (fold increase in extracellular AK activity)",[2]; [3],1.0
same,"AK-based Prestwick Library Screening Results, K. pneumoniae (fold increase in extracellular AK activity)",K. pneumoniae; [3],1.0
"C[C@H]1C[C@@H]2[C@H]([C@@H](O)C[C@@]3(C)[C@H]2CC[C@]3(O)C(=O)CO)[C@@]2(C)C=CC(=O)C=C12 [Methylprednisolone, 6-alpha]","AK-based Prestwick Library Screening Results, E. faecium (increase in extracellular AK activity)",E. faecium; [4],1.0
same,"AK-based Prestwick Library Screening Results, P. aeruginosa (increase in extracellular AK activity)",P. aeruginosa; [4],0.9
same,"AK-based Prestwick Library Screening Results, E. coli (increase in extracellular AK activity)",E. coli; [4],0.8
same,"AK-based Prestwick Library Screening Results, E. cloacae (increase in extracellular AK activity)",E. cloacae; [4],1.3
same,"AK-based Prestwick Library Screening Results, S. aureus (increase in extracellular AK activity)",[1]; [4],0.8
same,"AK-based Prestwick Library Screening Results, A. baumannii (increase in extracellular AK activity)",[2]; [4],0.9
same,"AK-based Prestwick Library Screening Results, K. pneumoniae (increase in extracellular AK activity)",K. pneumoniae; [4],0.7
Cc1cc2c(cc1S(N)(=O)=O)S(=O)(=O)CCC2 [Meticrane],fold induction at 50 µM,"E. faecium; 384-well format, […], read-out: AK-based Prestwick Library Screening Results, E. faecium (increase in extracellular AK activity)",0.9
same,fold induction at 50 µM,"P. aeruginosa; 384-well format, […], read-out: AK-based Prestwick Library Screening Results, P. aeruginosa (increase in extracellular AK activity)",0.6
same,fold induction at 50 µM,"E. coli; 384-well format, […], read-out: AK-based Prestwick Library Screening Results, E. coli (increase in extracellular AK activity)",0.6
same,fold induction at 50 µM,"E. cloacae; 384-well format, […], read-out: AK-based Prestwick Library Screening Results, E. cloacae (increase in extracellular AK activity)",0.7
same,fold induction at 50 µM,"[1]; 384-well format, […], read-out: AK-based Prestwick Library Screening Results, S. aureus (increase in extracellular AK activity)",0.8
same,fold induction at 50 µM,"[2]; 384-well format, […], read-out: AK-based Prestwick Library Screening Results, A. baumannii (increase in extracellular AK activity)",0.8
same,fold induction at 50 µM,"K. pneumoniae; 384-well format, […], read-out: AK-based Prestwick Library Screening Results, K. pneumoniae (increase in extracellular AK activity)",0.5
CN1CCCC(CC2c3ccccc3Sc3ccccc32)C1 (stereo not drawn) [Metixene hydrochloride],fold induction at 50 µM,"E. faecium; planktonic E. faecium, cutoff for positive-scoring molecules 3-fold increase, read-out: AK-based Prestwick Library Screening Results, E. faecium (increase in extracellular AK activity)",1
same,fold induction at 50 µM,"P. aeruginosa; planktonic P. aeruginosa, cutoff for positive-scoring molecules 3-fold increase, read-out: AK-based Prestwick Library Screening Results, P. aeruginosa (increase in extracellular AK activity)",0.8
same,fold induction at 50 µM,"E. coli; planktonic E. coli, cutoff for positive-scoring molecules 3-fold increase, read-out: AK-based Prestwick Library Screening Results, E. coli (increase in extracellular AK activity)",0.9
same,fold induction at 50 µM,"E. cloacae; planktonic E. cloacae, cutoff for positive-scoring molecules 3-fold increase, read-out: AK-based Prestwick Library Screening Results, E. cloacae (increase in extracellular AK activity)",0.8
same,fold induction at 50 µM,"[1]; planktonic S. aureus, cutoff for positive-scoring molecules 3-fold increase, read-out: AK-based Prestwick Library Screening Results, S. aureus (increase in extracellular AK activity)",0.7
same,fold induction at 50 µM,"[2]; planktonic A. baumannii, cutoff for positive-scoring molecules 3-fold increase, read-out: AK-based Prestwick Library Screening Results, A. baumannii (increase in extracellular AK activity)",1
same,fold induction at 50 µM,"K. pneumoniae; planktonic K. pneumoniae, cutoff for positive-scoring molecules 3-fold increase, read-out: AK-based Prestwick Library Screening Results, K. pneumoniae (increase in extracellular AK activity)",0.8
CCN(CC)CCNC(=O)c1cc(Cl)c(N)cc1OC [Metoclopramide monohydrochloride],fold induction at 50 µM,"E. faecium; planktonic E. faecium, 384-well, cutoff for positive-scoring molecules 3-fold increase, read-out: AK-based Prestwick Library Screening Results: E. faecium (increase in extracellular AK activity)",1.2
same,fold induction at 50 µM,"P. aeruginosa; planktonic P. aeruginosa, 384-well, cutoff for positive-scoring molecules 3-fold increase, read-out: AK-based Prestwick Library Screening Results: P. aeruginosa (increase in extracellular AK activity)",1.1
same,fold induction at 50 µM,"E. coli; planktonic E. coli, 384-well, cutoff for positive-scoring molecules 3-fold increase, read-out: AK-based Prestwick Library Screening Results: E. coli (increase in extracellular AK activity)",1.3
same,fold induction at 50 µM,"E. cloacae; planktonic E. cloacae, 384-well, cutoff for positive-scoring molecules 3-fold increase, read-out: AK-based Prestwick Library Screening Results: E. cloacae (increase in extracellular AK activity)",1.6
same,fold induction at 50 µM,"[1]; planktonic S. aureus, 384-well, cutoff for positive-scoring molecules 3-fold increase, read-out: AK-based Prestwick Library Screening Results: S. aureus (increase in extracellular AK activity)",0.9
same,fold induction at 50 µM,"[2]; planktonic A. baumannii, 384-well, cutoff for positive-scoring molecules 3-fold increase, read-out: AK-based Prestwick Library Screening Results: A. baumannii (increase in extracellular AK activity)",1.2
same,fold induction at 50 µM,"K. pneumoniae; planktonic K. pneumoniae, 384-well, cutoff for positive-scoring molecules 3-fold increase, read-out: AK-based Prestwick Library Screening Results: K. pneumoniae (increase in extracellular AK activity)",0.9
Cc1ccccc1N1C(=O)c2cc(S(N)(=O)=O)c(Cl)cc2NC1C (stereo not drawn) [Metolazone],fold induction at 50 µM,E. faecium; [5],0.8
same,fold induction at 50 µM,P. aeruginosa; [6],0.7
same,fold induction at 50 µM,E. coli; [7],0.8
same,fold induction at 50 µM,E. cloacae; [8],1
same,fold induction at 50 µM,[1]; [9],0.7
same,fold induction at 50 µM,[2]; [10],0.8
same,fold induction at 50 µM,K. pneumoniae; [11],0.6
CC(=O)Nc1c(I)c(C(=O)N[C@H]2C(O)O[C@H](CO)[C@@H](O)[C@@H]2O)c(I)c(N(C)C(C)=O)c1I (stereo partly drawn) [Metrizamide],fold induction at 50 µM,"E. faecium; planktonic, cutoff for positive 3-fold increase, read-out: AK-based Prestwick Library Screening Results, E. faecium (fold increase in extracellular AK activity)",1
same,fold induction at 50 µM,"P. aeruginosa; planktonic, cutoff for positive 3-fold increase, read-out: AK-based Prestwick Library Screening Results, P. aeruginosa (fold increase in extracellular AK activity)",1.2
same,fold induction at 50 µM,"E. coli; planktonic, cutoff for positive 3-fold increase, read-out: AK-based Prestwick Library Screening Results, E. coli (fold increase in extracellular AK activity)",1.2
same,fold induction at 50 µM,"E. cloacae; planktonic, cutoff for positive 3-fold increase, read-out: AK-based Prestwick Library Screening Results, E. cloacae (fold increase in extracellular AK activity)",1.3
same,fold induction at 50 µM,"[1]; planktonic, cutoff for positive 3-fold increase, read-out: AK-based Prestwick Library Screening Results, S. aureus (fold increase in extracellular AK activity)",1.2
same,fold induction at 50 µM,"[2]; planktonic, cutoff for positive 3-fold increase, read-out: AK-based Prestwick Library Screening Results, A. baumannii (fold increase in extracellular AK activity)",1.3
same,fold induction at 50 µM,"K. pneumoniae; planktonic, cutoff for positive 3-fold increase, read-out: AK-based Prestwick Library Screening Results, K. pneumoniae (fold increase in extracellular AK activity)",1
Cc1ncc([N+](=O)[O-])n1CCO [Metronidazole],fold induction at 50 µM,E. faecium; [5],0.8
same,fold induction at 50 µM,P. aeruginosa; [6],0.3
same,fold induction at 50 µM,E. coli; [7],0.4
same,fold induction at 50 µM,E. cloacae; [8],0.3
same,fold induction at 50 µM,[1]; [9],0.4
same,fold induction at 50 µM,[2]; [10],0.4
same,fold induction at 50 µM,K. pneumoniae; [11],0.4
